Results as given in patent US20250302948A1, “DR5 Agonist and IAP Antagonist Combination Therapy” (Inhibrx Biosciences, Inc., priority 2022, published 2025).

Key:
SW620 = assay: CellTiter-Glo cell viability, 48 h (Examples 1, 2); format: cell-based; settings: Homo sapiens, SW-620
From the text: (§1) Test Article Preparation for INBRX-109.
(§2) Day 2—Test and Control Article Addition.
(§3) Day 4—Viability Measurements. […] Data was graphed in GraphPad Prism 7.

HT-29 = assay: CellTiter-Glo cell viability, 48 h (Example 1); format: cell-based; settings: Homo sapiens
From the text: as §1, §2, §3

LS411N = assay: CellTiter-Glo cell viability, 48 h (Example 1); format: cell-based; settings: Homo sapiens, LS-411N
From the text: as §1, §2, §3

SNU-C2B = assay: CellTiter-Glo cell viability, 48 h (Example 1); format: cell-based; settings: Homo sapiens
From the text: as §1, §2, §3

NCI-H460 = assay: Cytotoxicity on lung cancer cell lines, assay similar to Example 1 (Example 4); settings: Homo sapiens
Procedure: (§4) Day 1-Cell Seeding. Monolayer cultures of each cell line were harvested for compound screening as detailed below. Culture medium was aspirated, and the cells were washed once with PBS. Accutase was added and flasks were incubated at 37° C. until cells became detached. An equal volume of complete medium was added to quench the Accutase, and the cells were then pipetted up and down several times to generate a homogenous single cell suspension. The density and viability of cells was determined by Trypan Blue using a TC20 Automated Cell Counter. Experimental cells were resuspended to a concentration of 0.17×10^6/mL in EMEM/10% FBS/Anti-Anti media (complete EMEM) and seeded in the inner wells of 384-well luminescence plates at 15 μL/well (2,500/well final). Each cell line was plated in duplicate on separate plates. […]
(§5) Day 4—Viability Measurements. […] Any visible bubbles were removed with 100% ethanol vapor, then luminescence (RLU) was read on the Spectra Max M5e plate reader, using the 384-well opaque plate setting and SoftMaxPro v5.4 software with an integration time of 50 milliseconds. To determine the effect of test articles on cell viability, raw RLU values were exported to Excel and percent survival was calculated as a percentage of vehicle control (0.2% DMSO in EMEM), where the vehicle control is set at 100%. […]

HCC2935 = assay: as above; settings: Homo sapiens
Procedure: as §4, §5

NCI-H23 = assay: as above; settings: Homo sapiens
Procedure: as §4, §5

NCI-H2452 = assay: as above; settings: Homo sapiens
Procedure: as §4, §5

A549 = assay: as above; settings: Homo sapiens
Procedure: as §4, §5

CAL-120 = assay: Cytotoxicity on breast cancer cell lines, assay similar to Example 3 (Example 4); settings: Homo sapiens
Procedure: (§6) Two duplicate plates were set up for day 0 reading (T0) and for reading at the end point (T48).
(§7) To generate a 10× working dilution plate of the small molecules, a 1:100 dilution was performed from the 1000× plate into the appropriate media.
(§8) Day 2—Compound Treatment. […] The plates were then incubated in a 37° C. humidity-controlled tissue culture incubator (5% CO2).
(§9) 20 μL culture medium containing 1% DMSO and 50 μL CellTiter-Glo® Reagent was added to each well of the TO plates and the contents mixed, plate was incubated at room temperature for 30 min, and read on an En Vision Multi Label Reader.
(§10) Day 4—Viability Measurements. 50 μL CellTiter-Glo® Reagent was added to each well of the T48 plates and the contents mixed, plate was incubated at room temperature for 30 min, and read on an EnVision Multi Label Reader. The formula for calculating percent survival is: % survival=(LumTest article−LumMedium control)/(LumNone treated−LumMedium control)×100%. Percent cytotoxicity was calculated by subtracting the % survival from 100.

MX = assay: as above
Procedure: as §6, §7, §8, §9, §10

BT-20 = assay: as above; settings: Homo sapiens
Procedure: as §6, §7, §8, §9, §10

BT-549 = assay: as above; settings: Homo sapiens
Procedure: as §6, §7, §8, §9, §10

HCC1937 = assay: as above; settings: Homo sapiens
Procedure: as §6, §7, §8, §9, §10

SUM159PT = assay: as above; settings: Homo sapiens, SUM-159-PT
Procedure: (§11) Day 1—Cell Seeding. Monolayer cultures of each cancer cell line (see Table 7) were harvested during the logarithmic growth period. The density and viability of cells was determined by Trypan Blue using a Vi cell counter, cells were diluted in the appropriate growth media (see Table 7) and 90 μL cell suspensions were added to 96-well plates for compound screening as detailed below. Two duplicate plates were set up for day 0 reading (T0) and for reading at the end point (T48).
as §7, §8, §9
(§12) Day 4—Viability Measurements. 50 μL CellTiter-Glo® Reagent was added to each well of the T48 plates and the contents mixed, plate was incubated at room temperature for 30 min, and read on an EnVision Multi Label Reader. […] Percent cytotoxicity was calculated by subtracting the % survival from 100.

HCC70 = assay: as above; settings: Homo sapiens
Procedure: as §11, §7, §8, §9, §12

HCC1806 = assay: as above; settings: Homo sapiens
Procedure: as §11, §7, §8, §9, §12

HCC1187 = assay: as above; settings: Homo sapiens
Procedure: as §11, §7, §8, §9, §12

DU4475 = assay: as above; settings: Homo sapiens, DU-4475
Procedure: as §11, §7, §8, §9, §12

CAL-51 = assay: as above; settings: Homo sapiens
Procedure: (§13) Day 1—Cell Seeding. […] Two duplicate plates were set up for day 0 reading (T0) and for reading at the end point (T48).
as §7, §8, §9, §10

HCC1395 = assay: as above; settings: Homo sapiens
Procedure: as §13, §7, §8, §9, §10

HS 578T = assay: as above; settings: Homo sapiens
Procedure: as §13, §7, §8, §9, §10

CAL-78 = assay: Cytotoxicity on chondrosarcoma cell lines, assay similar to Example 1 (Example 4)
Procedure: as §4, §5

OUMS-27 = assay: as above
Procedure: as §4, §5

SW1353 = assay: as above; settings: Homo sapiens
Procedure: as §4, §5

H-EMC-SS = assay: as above
Procedure: as §4, §5

NCI-N87 = assay: Cytotoxicity on gastric cancer cell lines, assay similar to Example 1 (Example 4); settings: Homo sapiens
Procedure: as §4
(§14) Day 4—Viability Measurements. […] Any visible bubbles were removed with 100% ethanol vapor, then luminescence (RLU) was read on the Spectra Max M5e plate reader, using the 384-well opaque plate setting and SoftMaxPro v5.4 software with an integration time of 50 milliseconds. To determine the effect of test articles on cell viability, raw RLU values were exported to Excel and percent survival was calculated as a percentage of vehicle control (0.2% DMSO in EMEM), where the vehicle control is set at 100%.

SNU-5 = assay: as above; settings: Homo sapiens
Procedure: as §4, §14

SNU-1 = assay: as above; settings: Homo sapiens, SNU1
Procedure: as §4, §14

AsPC-1 = assay: Cytotoxicity on pancreatic cancer cell lines, assay similar to Example 1 (Example 4); settings: Homo sapiens, ASPC1
Procedure: as §4, §14

Panc-1 = assay: as above; settings: Homo sapiens
Procedure: as §4, §14

MIA-PaCa-2 = assay: as above; settings: Homo sapiens
Procedure: as §4, §5

SW1990 = assay: as above; settings: Homo sapiens
Procedure: as §4, §5

CC[C@H](NC(=O)[C@H](C)NC)C(=O)N1C[C@@H](O)C[C@H]1Cc1c(-c2[nH]c3cc(F)ccc3c2C[C@@H]2C[C@H](O)CN2C(=O)[C@H](CC)NC(=O)[C@H](C)NC)[nH]c2cc(F)ccc12 [Birinapant, birinapant]
cytotoxicity at 5 µM (SW620): 11.7%
cytotoxicity at 5 µM (HT-29): 20.4%
cytotoxicity at 5 µM (LS411N): 14.3%
cytotoxicity at 5 µM (SNU-C2B): 71.1%
cytotoxicity at 2 µM (NCI-H460): 6.55%
cytotoxicity at 2 µM (HCC2935): 13.9%
cytotoxicity at 2 µM (NCI-H23): 9.3%
cytotoxicity at 2 µM (NCI-H2452): 6.11%
cytotoxicity at 2 µM (A549): 11.3%
cytotoxicity at 3.16 µM (CAL-120): 2.75%
cytotoxicity at 3.16 µM (MX): -7.11%
cytotoxicity at 3.16 µM (BT-20): 6.51%
cytotoxicity at 3.16 µM (BT-549): 6.85%
cytotoxicity at 3.16 µM (HCC1937): -2.77%
cytotoxicity at 3.16 µM (SUM159PT): -1.7%
cytotoxicity at 3.16 µM (HCC70): 34%
cytotoxicity at 3.16 µM (HCC1806): 5.17%
cytotoxicity at 3.16 µM (HCC1187): 36%
cytotoxicity at 3.16 µM (DU4475): 14.3%
cytotoxicity at 3.16 µM (CAL-51): 2.35%
cytotoxicity at 3.16 µM (HCC1395): 8.93%
cytotoxicity at 3.16 µM (HS 578T): 12.7%
cytotoxicity at 2 µM (CAL-78): 14%
cytotoxicity at 2 µM (OUMS-27): -0.15%
cytotoxicity at 2 µM (SW1353): 0.1%
cytotoxicity at 2 µM (H-EMC-SS): 31.1%
cytotoxicity at 2 µM (NCI-N87): 1.82%
cytotoxicity at 2 µM (SNU-5): 59.6%
cytotoxicity at 2 µM (SNU-1): 7.62%
cytotoxicity at 2 µM (AsPC-1): 9.46%
cytotoxicity at 2 µM (Panc-1): 11.7%
cytotoxicity at 2 µM (MIA-PaCa-2): 9.17%
cytotoxicity at 2 µM (SW1990): 10.4%
